This is an account of results in patent publication US5593970A, “Heterocyclic anthracycline analogs” (priority 1994, dated 1997).

Common to all, as to experiment: Microculture tetrazolium assay
What all share (format): cell-based

Experiment [1] concerns SKVLB. Conditions: for VLB/OV3: IC50 ratio SKVLB/SKOV3; for IC50: SKVLB.
For experiment [2], the system named is HT29.
Experiment [3] has as its system T47D.
The subject of experiment [4] is LOX.
Experiment [5] relates to SKOV3.
Where [6] appears, read: Homo sapiens, HT-29, HT29, read-out: IC50.
The mark [7] stands for this setting: Homo sapiens, SK-OV-3, SKOV3, read-out: IC50.

Molecules are shown by their SMILES. Structures can show the parent of a compound that is named as a salt. Where two headings read alike, the source gives them in different places.

As for `CC(=O)C1CC2=C(C(=O)c3cc4ccccc4c(O)c3C2=O)C(OC[C@@H]2COC(C)(C)O2)O1` (some centres unmarked) [BCH-1661], the VLB/OV3 in experiment [1] was found to be 0.94. Besides, the half-inhibitory concentration (IC50) in experiment [1] (read-out: IC50) was 2660 nM; in experiment [2] (setting [6]), 3040 nM; in experiment [3] (Homo sapiens, read-out: IC50), 5120 nM; in experiment [4] (read-out: IC50), 3590 nM; in experiment [5] (setting [7]), 2820 nM.

Turning to `COC[C@@H]1CC2=C(C(=O)c3cc4ccccc4c(O)c3C2=O)[C@@H](O[C@H]2C[C@H](NC(=O)C(F)(F)F)[C@H](O)[C@H](C)O2)O1` [BCH-1694, (1'S,1R,3S)-5,12-dioxo-6-hydroxy-3-methoxymethyl-1-(2',3',6'-trideoxy-3'-trifluoroacetamido-L-lyxohexopyranose)-3,4,5,12-tetrahydroanthraceno-[2,3-C]pyran], the VLB/OV3 in experiment [1] is 3.19. Further, the IC50 in experiment [1] (read-out: IC50) was found to be 9540 nM; in experiment [2] (setting [6]), 4310 nM; in experiment [3] (Homo sapiens, read-out: IC50), 4490 nM; in experiment [4] (read-out: IC50), 3580 nM; in experiment [5] (setting [7]), 2990 nM.

On to `COC[C@@H]1CC2=C(C(=O)c3cc4ccccc4c(O)c3C2=O)[C@@H](O[C@H]2C[C@H](N)[C@H](O)[C@H](C)O2)O1` [BCH-1695, (1'S ,1R,3S)-5,12-dioxo-6-hydroxy-3-methoxymethyl-1-(2',3',6'trideoxy-3'-amino-L-lyxohexopyranose)-3,4,5,12-tetrahydroanthraceno-[2,3-c]pyran], for which the VLB/OV3 in experiment [1] amounted to 4.46. Further, the IC50 in experiment [1] (read-out: IC50) stood at 25600 nM; in experiment [2] (setting [6]) it was 14800 nM; in experiment [3] (Homo sapiens, read-out: IC50) it was 12800 nM; in experiment [4] (read-out: IC50), 5230 nM; in experiment [5] (Homo sapiens, SK-OV-3, SKOV3), 5740 nM.

Consider `COC[C@H]1CC2=C(C(=O)c3cc4ccccc4c(O)c3C2=O)[C@H](O[C@H]2C[C@H](NC(=O)C(F)(F)F)[C@H](O)[C@H](C)O2)O1` [BCH-1696, (1'S,1S,3R)-5,12-dioxo-6-hydroxy-3-methoxymethyl-1-(2',3',6'-trideoxy-3'-trifluoroacetamido-L-lyxohexopyranose)-3,4,5,12-tetrahydroanthraceno-[2,3-C]pyran], for which the VLB/OV3 in experiment [1] is reported as 2.46. The IC50 in experiment [1] (read-out: IC50) was 2710 nM; in experiment [2] (setting [6]) it was 823 nM; in experiment [3] (Homo sapiens, read-out: IC50), 1210 nM; in experiment [4] (read-out: IC50), 1100 nM; in experiment [5] (setting [7]) it was 1100 nM.

For `COCC1(COC)CC2=C(C(=O)c3cc4ccccc4c(O)c3C2=O)[C@H](O[C@H]2C[C@H](NC(=O)C(F)(F)F)[C@H](O)[C@H](C)O2)O1` [BCH-1698, (1'S,1S)-5,12-dioxo-6-hydroxy-3,3-bismethoxymethyl-1-(2',3',6'-trideoxy-3'-trifluoroacetamido-L-lyxohexopyranose)-3,4,5,12-tetrahydroanthraceno-[2,3-C]pyran], the VLB/OV3 in experiment [1] was 6.73. The IC50 in experiment [1] (read-out: IC50) was 5820 nM; in experiment [2] (setting [6]), 1120 nM; in experiment [3] (Homo sapiens, read-out: IC50) it was 727 nM; in experiment [4] (read-out: IC50), 398 nM; in experiment [5] (setting [7]), 865 nM.

Consider `CC(=O)[C@@H]1CC2=C(C(=O)c3cc4ccccc4c(O)c3C2=O)[C@@H](O[C@@H]2O[C@@H](C)[C@@H](O)[C@@H](O)C2I)O1` (some centres unmarked) [BCH-1990], for which, in experiment [1], the VLB/OV3 was 2.64. In addition, the 50% inhibitory concentration (IC50) is 5540 nM in experiment [1]; 1100 nM in experiment [2] (setting [6]); 3880 nM in experiment [3] (Homo sapiens, read-out: IC50); 3010 nM in experiment [4] (read-out: IC50); 2100 nM in experiment [5] (setting [7]).

Consider `COCC1(COC)CC2=C(C(=O)c3cc4ccccc4c(O)c3C2=O)[C@H](O[C@H]2C[C@H](N)[C@H](O)[C@H](C)O2)O1` [BCH-1991, (1'S,1S)-5,12-dioxo-6-hydroxy-3,3-bis-methoxymethyl-1-(2',3',6'-trideoxy-3'-amino-L-lyxohexopyranose)-3,4,5,12-tetrahydroanthraceno-[2,3-c]-pyran hydrochloride], for which the VLB/OV3 in experiment [1] was 3.77. Further, the IC50 in experiment [1] was 5540 nM; in experiment [2] (setting [6]), 1720 nM; in experiment [3] (Homo sapiens, read-out: IC50) it was 918 nM; in experiment [4] (read-out: IC50) it was 1290 nM; in experiment [5] (setting [7]) it was 1470 nM.

In the case of `CC(=O)[C@@H]1CC2=C(C(=O)c3cc4ccccc4c(O)c3C2=O)[C@H](OC[C@@H]2COC(C)(C)O2)S1` [BCH-1993], the VLB/OV3 in experiment [1] came to 3.10. Also, the IC50 in experiment [1] (read-out: IC50) stood at 13000 nM; in experiment [2] (HT29, read-out: IC50), 3470 nM; in experiment [3] (read-out: IC50), 9810 nM; in experiment [4] (read-out: IC50), 4020 nM; in experiment [5] (SKOV3, read-out: IC50), 4190 nM.

`CC(=O)[C@H]1CC2=C(C(=O)c3cc4ccccc4c(O)c3C2=O)[C@@H](OC[C@@H]2COC(C)(C)O2)S1` [BCH-1994]: the VLB/OV3 in experiment [1] came to 3.15. The IC50 in experiment [1] (read-out: IC50) is 8620 nM; in experiment [2] (HT29, read-out: IC50), 1960 nM; in experiment [3] (read-out: IC50), 4410 nM; in experiment [4] (read-out: IC50), 1910 nM; in experiment [5] (SKOV3, read-out: IC50) it was 2740 nM.

For the compound `C[C@@H]1O[C@@H](O[C@@H]2O[C@@H]([C@H](O)CO)CC3=C2C(=O)c2cc4ccccc4c(O)c2C3=O)C[C@H](NC(=O)C(F)(F)F)[C@@H]1O` [BCH-1997], in experiment [1], the VLB/OV3 turned out to be 4.31. In addition, the IC50 in experiment [1] (read-out: IC50) was found to be 6720 nM; in experiment [2] (setting [6]) it was 2690 nM; in experiment [3] (Homo sapiens, read-out: IC50) it was 2140 nM; in experiment [4] (read-out: IC50) it was 2300 nM; in experiment [5] (setting [7]) it was 1560 nM.

Take `CC(=O)[C@@H]1Cc2c(O)c3c(c(O)c2[C@@H](O[C@H]2O[C@H](CO)[C@@H](O)[C@H](O)[C@H]2NC(=O)N(CCCl)N=O)O1)C(=O)c1ccccc1C3=O` [BCH-1999, (1'R, 1R,3S)-3-aceto-5,12-dihydroxy-1(2-deoxy-2-chloroethylnitrosoureido D-glucopyranose)-6,11-dioxo-3,4,6,11-tetrahydro-1H-anthra[2,3-c]pyran]: the IC50 was 1000 nM in experiment [1]; 8060 nM in experiment [2] (Homo sapiens, HT-29, HT29); 20000 nM in experiment [3] (Homo sapiens); 4970 nM in experiment [4]; under 7740 nM in experiment [5] (Homo sapiens, SK-OV-3, SKOV3).

On to `C[C@@H]1O[C@@H](O[C@@H]2O[C@@H](S(=O)(=O)c3ccccc3)CC3=C2C(=O)c2cc4ccccc4c(O)c2C3=O)C[C@H](NC(=O)C(F)(F)F)[C@@H]1O` [BCH-2001], for which, in experiment [1], the VLB/OV3 was determined as 1.90. In addition, the IC50 is 5820 nM in experiment [1] (read-out: IC50); 1380 nM in experiment [2] (setting [6]); 2590 nM in experiment [3] (Homo sapiens, read-out: IC50); 2490 nM in experiment [4] (read-out: IC50); 3060 nM in experiment [5] (setting [7]).

Turning to `C[C@@H]1O[C@@H](O[C@@H]2OC=CC3=C2C(=O)c2cc4ccccc4c(O)c2C3=O)C[C@H](NC(=O)C(F)(F)F)[C@@H]1O` [BCH-2002], the VLB/OV3 in experiment [1] amounted to 2.88. For the same compound, the IC50 in experiment [1] (read-out: IC50) stood at 3570 nM; in experiment [2] (setting [6]), 980 nM; in experiment [3] (Homo sapiens, read-out: IC50) it was 1460 nM; in experiment [4] (read-out: IC50) it was 1750 nM; in experiment [5] (setting [7]), 1240 nM.

For the compound `C=CC[C@H]1CC2=C(C(=O)c3cc4ccccc4c(O)c3C2=O)[C@H](O[C@H]2C[C@H](N)[C@H](O)[C@H](C)O2)O1` [BCH-2006, (1'S,1S,3S)-3-(6-hydroxy-1-(2',3',6'-trideoxy-3'-amino-4'-hydroxy-L-lyxohexopyranose)-5,12-dioxo-3,4,5,12-tetrahydroanthraceno-[2,3-c]pyran-3-yl)propene hydrochloride], the VLB/OV3 in experiment [1] is given as 4.23. Besides, the IC50 in experiment [1] (read-out: IC50) amounted to 3730 nM; in experiment [2] (setting [6]) it was 410 nM; in experiment [3] (Homo sapiens, read-out: IC50), 1920 nM; in experiment [4] (read-out: IC50) it was 484 nM; in experiment [5] (setting [7]), 882 nM.
